Data from patent publication US9643971B2 (GALLEON PHARMACEUTICALS, INC., priority 2013, dated 2017).

Test system: anesthetized rat
Assay: Anesthetized rat spirometry screening assay
Assay type: in vivo
Conditions: for AUC MV Inc (2 min) (ratio vs. std*): 2 minute AUC of minute volume increase vs. comparator N-[2,6-di-(n-propylamino)-[1,3]pyrimidin-4-yl]-N,O-dimethyl-hydroxylamine; for VE Peak (% Inc.): peak minute ventilation increase, urethane-anesthetized rat, i.v. bolus, screening doses 0.1 and 0.3 mg/kg
Description: Effect of Compounds of the Invention on Respiratory Rate (RR), Tidal Volume (VT), and the Product Minute Volume Using an Anesthetized Rat Spirometry Screening Assay
Anesthetized rats provide a quick method of screening compounds for respiratory and cardiovascular activity. In contrast to the conscious rat model, this model offers an experimental set up with less variation in the baseline cardiovascular and respiratory measures. Compounds screened in this assay may be examined in a conscious rat model.
Rats were initially anesthetized with 3% isoflurane (inhaled) and femoral artery and vein cannulas were surgically inserted. Once cannulated, the rats were transitioned to urethane anesthesia (1.5 g/kg; i.v.) and a tracheal cut-down was performed. After placing the tracheal cannula, it was connected to a pneumotachometer to record respiratory airflow from which respiratory rate (RR), tidal volume (VT), and their product minute volume were derived. After the surgical preparation was complete, animals were allowed to stabilize for 30 minutes while respiratory rate, tidal volume, minute volume, blood pressure and heart rate were recorded continuously. Arterial blood gases (ABG) were obtained from arterial blood collected from the femoral artery. ABG measurements were taken before and 6 minutes after vehicle and each dose of compound administered. Compounds being screened were administered via bolus injections through the venous cannula followed by a saline flush (total time of administration is approximately 30 seconds), and the animal was monitored for at least 6 minutes for changes in cardiovascular efforts. Compounds were prepared in formulations identified to ensure optimal solubility. As such, vehicle controls were matched for the formulation of each compound tested. Dosing of the compound being screened was 0.1 and 0.3 mg/kg. The next dose was not administered until all cardiovascular and respiratory measures had returned to baseline levels. The positive control compounds used were N-[4,6-di-(n-propylamino)-[1,3,5]triazin-2-yl]-N,O-dimethyl-hydroxylamine or N-[2,6-di-(n-propylamino)-[1,3]pyrimidin-4-yl]-N,O-dimethyl-hydroxylamine (both administered at the end of each screening experiment (0.3 mg/kg dose) to validate the experiment and also to serve as a measure with which the compound being screened could be compared.
Data were analyzed by collecting cardiovascular and respiratory data in 30 second averages (BINs). Data were plotted 2 minutes before challenge and then 6 minutes after challenge.

CCCNc1nc(NC)c2nc(OCc3ccccc3)nc(NC)c2n1 [Compound 99a, 6-Benzyloxy-N^4,N^8-Dimethyl-N^2-n-propyl-pyrimido[5,4-d]pyrimidine-2,4,8-triamine]
AUC MV Inc (2 min) (ratio vs. std*): 0.19 ratio vs. std

CCCNc1nc(NC)c2nc(NCC(=O)O)nc(NC)c2n1 [Compound 154, (4,8-bis-methylamino-6-n-propylamino-pyrimido[5,4-d]pyrimidin-2-ylamino)-acetic acid]
AUC MV Inc (2 min) (ratio vs. std*): 0.00 ratio vs. std

CCCNc1nc(NC)c2nc(SCCC)nc(NC)c2n1 [Compound 97a, N^4,N^8-Dimethyl-N^2-n-propyl-6-propylsulfanyl-pyrimido[5,4-d]pyrimidine-2,4,8-triamine]
AUC MV Inc (2 min) (ratio vs. std*): 0.26 ratio vs. std

CCCNc1nc(N(CC)CC)nc2c(NCCC)nc(NCC)nc12 [Compound 152a, N^2,N^2,N^6-Triethyl-N^4,N^8-di-n-propyl-pyrimido[5,4-d]pyrimidine-2,4,6,8-tetraamine]
AUC MV Inc (2 min) (ratio vs. std*): 0.00 ratio vs. std

C=CCNc1nc(NC)c2nc(NCC=C)nc(NC)c2n1.Cl [Compound 89a, N^2,N^6-Diallyl-N^4,N^8-dimethyl-pyrimido[5,4-d]pyrimidine-2,4,6,8-tetraamine hydrochloride]
AUC MV Inc (2 min) (ratio vs. std*): 0.92 ratio vs. std

CCCNc1nc(NC)c2nc(C(N)=O)nc(NC)c2n1 [Compound 107a, 6-Carbamoyl-N^4,N^8-dimethyl-N^2-n-propyl-pyrimido[5,4-d]pyrimidine-2,4,8-triamine]
AUC MV Inc (2 min) (ratio vs. std*): 0.00 ratio vs. std

CCCN=C(N)c1nc(NC)c2nc(NCCC)nc(NC)c2n1 [Compound 110a, N-(n-Propyl)-[4,8-Bis-methylamino-6-n-propylamino-pyrimido[5,4-d]pyrimidin-2-yl]-amidine]
AUC MV Inc (2 min) (ratio vs. std*): 0.00 ratio vs. std
VE Peak (% Inc.): 0 % Inc.

CCCNc1nc(NC)c2nc(N3CCS(=O)(=O)CC3)nc(NC)c2n1.Cl [Compound 75a, N^2-6-n-Propylamino-N^4,N^8-dimethyl-2-(1,1-dioxo-thiomorpholin-4-yl)-pyrimido-[5,4-d]pyrimidine-2,4,8-triamine hydrochloride]
AUC MV Inc (2 min) (ratio vs. std*): 0.02 ratio vs. std
VE Peak (% Inc.): 2 % Inc.

CCNc1nc(NCC2CC2)c2nc(N(CC)CC)nc(NCC3CC3)c2n1.Cl [Compound 135a, N^2,N^2,N^6-Triethyl-N^4,N^8-bis-cyclopropylmethyl-pyrimido[5,4-d]pyrimidine-2,4,6,8-tetraamine hydrochloride]
AUC MV Inc (2 min) (ratio vs. std*): 0.00 ratio vs. std

CCCNc1nc(NC)c2nc(C#N)nc(NC)c2n1 [Compound 103a, 4,8-Bis-methylamino-6-n-propylamino-pyrimido[5,4-d]pyrimidine-2-carbonitrile]
AUC MV Inc (2 min) (ratio vs. std*): 0.00 ratio vs. std

CCCNc1nc(NC)c2ncnc(NC)c2n1 [Compound 116a, N^4,N^8-Dimethyl-N^2-n-propyl-pyrimido[5,4-d]pyrimidine-2,4,8-triamine]
AUC MV Inc (2 min) (ratio vs. std*): 0.00 ratio vs. std

CCCN(C)c1nc(N)c2nc(N(C)C)nc(NC)c2n1.Cl [Compound 56a, N^2,N^2,N^4,N^6-Tetramethyl-N^6-n-propyl-pyrimido[5,4-d]pyrimidine-2,4,6,8-tetraamine hydrochloride]
AUC MV Inc (2 min) (ratio vs. std*): 0.79 ratio vs. std

CCNc1nc(NCC)c2nc(NCC)nc(NCC)c2n1.Cl [Compound 125a, N^2,N^4,N^6,N^8-Tetraethyl-pyrimido[5,4-d]pyrimidine-2,4,6,8-tetraamine hydrochloride]
AUC MV Inc (2 min) (ratio vs. std*): 0.80 ratio vs. std

CCCNc1nc(NC)c2nc(N(C)CCN(C)C)nc(NC)c2n1 [Compound 64a, 2-[N-(2-Dimethylamino-ethyl)-N-methyl]amino-N^4,N^8-dimethyl-N^6-n-propyl-pyrimido[5,4-d]pyrimidine-4,6,8-triamine]
AUC MV Inc (2 min) (ratio vs. std*): 0.01 ratio vs. std
VE Peak (% Inc.): 9 % Inc.

CCCNc1nc(NC)c2nc(O)nc(NC)c2n1 [Compound 101, 4,8-Bis-methylamino-6-propylamino-pyrimido[5,4-d]pyrimidin-2-ol]
AUC MV Inc (2 min) (ratio vs. std*): 0.00 ratio vs. std
